Reference: paper PMC10831120, “Nitric oxide synthase-guided genome mining identifies a cytochrome P450 enzyme for olefin nitration in bacterial specialized metabolism” (Synthetic and Systems Biotechnology, 2024)
pKd: −log10 of the molar value.

Target: T1, Laj2 (cytochrome P450)
T1 construct: His6-tagged Laj2 (405 aa), expressed in E. coli
Test: UV-vis difference spectral titration (type I binding spectra), one-site fit; nitration turnover also shown by LC-MS
Design: species or system Streptomyces qinglanensis

Compound: C/C=C(C)/C=C/C=C\C=C(\C)C(O)C(C)(C)C(=O)NC/C=C/C=C/C(O)C(C)CC(OC)C1(O)C(C)C(=O)N(C)C12COC2=O (stereo not shown) [compound 4, denitrolajollamycin]
- pKd: ~4.22
